We go through 21 molecules from US10590140B2, “Tetrahydropyrimidodiazepine and dihydropyridodiazepine compounds for treating pain and pain related conditions” (ESTEVE PHARMACEUTICALS, S.A., priority 2016, dated 2020).

human α2δ-1 subunit of Cav2.2 calcium channel, sequence (P54289 25-1103): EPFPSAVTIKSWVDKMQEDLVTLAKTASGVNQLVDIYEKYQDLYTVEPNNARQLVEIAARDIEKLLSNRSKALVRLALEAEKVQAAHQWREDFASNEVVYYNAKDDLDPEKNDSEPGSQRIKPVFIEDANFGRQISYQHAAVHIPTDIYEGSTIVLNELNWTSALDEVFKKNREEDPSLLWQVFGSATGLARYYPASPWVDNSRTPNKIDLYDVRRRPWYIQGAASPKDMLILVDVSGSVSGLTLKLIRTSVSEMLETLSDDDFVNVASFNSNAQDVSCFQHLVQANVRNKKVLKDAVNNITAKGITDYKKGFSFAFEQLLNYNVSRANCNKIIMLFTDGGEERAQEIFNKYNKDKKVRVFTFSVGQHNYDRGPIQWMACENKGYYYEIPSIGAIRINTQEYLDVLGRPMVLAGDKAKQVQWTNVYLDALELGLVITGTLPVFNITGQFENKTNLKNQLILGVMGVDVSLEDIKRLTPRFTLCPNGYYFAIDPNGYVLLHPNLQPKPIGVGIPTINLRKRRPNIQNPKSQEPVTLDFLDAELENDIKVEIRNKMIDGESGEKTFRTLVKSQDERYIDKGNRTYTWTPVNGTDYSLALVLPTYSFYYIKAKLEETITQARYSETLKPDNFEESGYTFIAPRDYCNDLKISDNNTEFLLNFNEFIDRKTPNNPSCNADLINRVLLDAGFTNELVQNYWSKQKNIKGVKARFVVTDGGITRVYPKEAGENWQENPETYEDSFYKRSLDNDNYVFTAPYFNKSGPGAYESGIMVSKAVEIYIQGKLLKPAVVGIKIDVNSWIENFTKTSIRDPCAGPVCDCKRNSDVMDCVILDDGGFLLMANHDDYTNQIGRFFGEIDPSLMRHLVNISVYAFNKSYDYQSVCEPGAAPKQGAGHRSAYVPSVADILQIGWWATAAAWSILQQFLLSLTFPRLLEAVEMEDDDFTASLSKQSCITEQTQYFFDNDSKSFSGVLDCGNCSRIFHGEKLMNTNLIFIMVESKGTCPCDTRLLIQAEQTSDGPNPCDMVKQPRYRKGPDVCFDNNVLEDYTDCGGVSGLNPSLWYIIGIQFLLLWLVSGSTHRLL

The test has as its target human α2δ-1 subunit of Cav2.2 calcium channel (Homo sapiens (Human), UniProt P54289). The test can be described thus: Binding assay to human α2δ-1 subunit of Cav2.2 calcium channel ([3H]-Gabapentin). As to conditions: binding to α2δ-1, [3H]-Gabapentin; read-out: Ki (nM) α2δ-1. As for the experimental part: Binding Assay to Human α2δ-1 Subunit of Cav2.2 Calcium Channel.
NSB (non specific binding) was measured by adding 10 μM pregabalin. After 60 min incubation at 27° C., binding reaction was terminated by filtering through Multiscreen GF/C (Millipore) presoaked in 0.5% polyethyleneimine in Vacuum Manifold Station, followed by 3 washes with ice-cold filtration buffer containing 50 mM Tris-HCl, pH 7.4.
Filter plates were dried at 60° C. for 1 hour and 30 μl of scintillation cocktail were added to each well before radioactivity reading.
On to `CSc1ncc2c(n1)N(C)CCN(c1cccc(CN(C)C(=O)OC(C)(C)C)c1)C2=O` [Example 26, tert-butyl methyl(3-(9-methyl-2-(methylthio)-5-oxo-5,7,8,9-tetrahydro-6H-pyrimido[4,5-e][1,4]diazepin-6-yl)benzyl) carbamate], for which the Ki was more than 3000 nM.
Turning to `CSc1ncc2c(n1)N(C)CCN(c1cccc(OC3CCN(C(=O)OC(C)(C)C)C3)c1)C2=O` (stereo not drawn) [Example 27, tert-butyl 3-(3-(9-methyl-2-(methylthio)-5-oxo-5,7,8,9-tetrahydro-6H-pyrimido[4,5-e][1,4]diazepin-6-yl)phenoxy) pyrrolidine-1-carboxylate], the inhibition constant Ki was more than 3000 nM.
With `CSc1ncc2c(n1)N(C)CCN(c1cccc(COC3(c4ccccc4)CCN(C(=O)OC(C)(C)C)CC3)c1)C2=O` [Example 28, tert-butyl 4-((3-(9-methyl-2-(methylthio)-5-oxo-5,7,8,9-tetrahydro-6H-pyrimido[4,5-e][1,4]diazepin-6-yl)benzyl)oxy)-4-phenylpiperidine-1-carboxylate], the Ki is more than 3000 nM.
To `CSc1ncc2c(n1)N(C)CCN(c1cccc(-c3nnc(C)o3)c1)C2=O` [Example 29, 9-methyl-6-(3-(5-methyl-1,3,4-oxadiazol-2-yl)phenyl)-2-(methylthio)-6,7,8,9-tetrahydro-5H-pyrimido[4,5-e][1,4]diazepin-5-one] belongs more than 3000 nM.
As to `CCN1CCN(c2cccc(-c3nnc(C)o3)c2)C(=O)c2cnc(SC)nc21` [Example 30, 9-ethyl-6-(3-(5-methyl-1,3,4-oxadiazol-2-yl)phenyl)-2-(methylthio)-6,7,8,9-tetrahydro-5H-pyrimido[4,5-e][1,4]diazepin-5-one], the Ki is more than 3000 nM.
To `CSc1ncc2c(n1)N(C)CCN(c1cccc(-c3noc(C)n3)c1)C2=O` [Example 31, 9-methyl-6-(3-(5-methyl-1,2,4-oxadiazol-3-yl)phenyl)-2-(methylthio)-6,7,8,9-tetrahydro-5H-pyrimido[4,5-e][1,4]diazepin-5-one] belongs more than 3000 nM.
To `COc1cccc(N2CCN(C)c3nc(SC)ncc3C2=O)c1` [Example 32, 6-(3-methoxyphenyl)-9-methyl-2-(methylthio)-6,7,8,9-tetrahydro-5H-pyrimido[4,5-e][1,4]diazepin-5-one] belongs more than 3000 nM.
Regarding `CSc1ncc2c(n1)N(C)CCN(c1cccc(C#N)c1)C2=O` [Example 33, 3-(9-methyl-2-(methylthio)-5-oxo-5,7,8,9-tetrahydro-6H-pyrimido[4,5-e][1,4]diazepin-6-yl)benzonitrile], the Ki was more than 3000 nM.
Regarding `CSc1ncc2c(n1)N(C)CCN(c1cccc(O[Si](C)(C)C(C)(C)C)c1)C2=O` [Example 34, 6-(3-((tert-butyldimethyl-silyl)oxy)phenyl)-9-methyl-2-(methylthio)-6,7,8,9-tetrahydro-5H-pyrimido[4,5-e][1,4]diazepin-5-one], the Ki is more than 3000 nM.
The value for `CSc1ncc2c(n1)N(C)CCN(c1cccc(Br)c1)C2=O` [Example 35, 6-(3-bromophenyl)-9-methyl-2-(methylthio)-6,7,8,9-tetrahydro-5H-pyrimido[4,5-e][1,4]diazepin-5-one] was more than 3000 nM; that for `CSc1ncc2c(n1)N(C)CCN(c1cccc(CCO)c1)C2=O` [Example 36, 6-(3-(2-hydroxyethyl)phenyl)-9-methyl-2-(methylthio)-6,7,8,9-tetrahydro-5H-pyrimido[4,5-e][1,4]diazepin-5-one] was more than 3000 nM; that for `COc1ccc(N2CCN(C)c3nc(SC)ncc3C2=O)cc1` [Example 37, 6-(4-methoxyphenyl)-9-methyl-2-(methylthio)-6,7,8,9-tetrahydro-5H-pyrimido[4,5-e][1,4]diazepin-5-one] was more than 3000 nM.
The value for `CSc1ncc2c(n1)N(C)CCN(c1ccc(O[Si](C)(C)C(C)(C)C)cc1)C2=O` [Example 38, 6-(4-((tert-butyldimethyl-silyl)oxy)phenyl)-9-methyl-2-(methylthio)-6,7,8,9-tetrahydro-5H-pyrimido[4,5-e][1,4]diazepin-5-one] was more than 3000 nM.
As for `CSc1ncc2c(n1)N(C)CCN(c1cccc(-n3cc(CN(C)C(=O)OC(C)(C)C)nn3)c1)C2=O` [Example 39, tert-butyl methyl((1-(3-(9-methyl-2-(methylthio)-5-oxo-5,7,8,9-tetrahydro-6H-pyrimido[4,5-e][1,4]diazepin-6-yl)phenyl)-1H-1,2,3-triazol-4-yl)methyl) carbamate], the Ki was more than 3000 nM.
Take `CSc1ncc2c(n1)N(C)CCN(c1cccc(-n3cc(CNC(=O)OC(C)(C)C)nn3)c1)C2=O` [Example 40, tert-butyl ((1-(3-(9-methyl-2-(methylthio)-5-oxo-5,7,8,9-tetrahydro-6H-pyrimido[4,5-e][1,4]diazepin-6-yl)phenyl)-1H-1,2,3-triazol-4-yl)methyl) carbamate]: the Ki was more than 3000 nM.
In the case of `CSc1ncc2c(n1)N(C)CCN(c1cccc(-n3cc(CN(Cc4ccccc4)C(=O)OC(C)(C)C)nn3)c1)C2=O` [Example 41, tert-butyl benzyl((1-(3 (9-methyl-2-(methylthio)-5-oxo-5,7,8,9-tetrahydro-6H pyrimido[4,5-e][1,4]diazepin-6-yl)phenyl)-1H-1,2,3-triazol-4-yl)methyl) carbamate], the Ki was more than 3000 nM.
For the molecule `CCOC(OCC)c1cn(-c2cccc(N3CCN(C)c4nc(SC)ncc4C3=O)c2)nn1` [Example 42, 6-(3-(4-(diethoxymethyl)-1H-1,2,3-triazol-1-yl)phenyl)-9-methyl-2-(methylthio)-6,7,8,9-tetrahydro-5H-pyrimido[4,5-e][1,4]diazepin-5-one], the inhibitory constant (Ki) is more than 3000 nM.
To `CSc1ncc2c(n1)N(C)CCN(c1cccc(-n3cc(CCN(C)C(=O)OC(C)(C)C)nn3)c1)C2=O` [Example 43, tert-butyl methyl(2-(1-(3-(9-methyl-2-(methylthio)-5-oxo-5,7,8,9-tetrahydro-6H-pyrimido[4,5-e][1,4]diazepin-6-yl)phenyl)-1H-1,2,3-triazol-4-yl)ethyl) carbamate] belongs more than 3000 nM; to `CSc1ncc2c(n1)N(C)CCN(c1cccc(Cn3cc(CN(C)C(=O)OC(C)(C)C)nn3)c1)C2=O` [Example 44, tert-butyl methyl((1-(3-(9-methyl-2-(methylthio)-5-oxo-5,7,8,9-tetrahydro-6H-pyrimido[4,5-e][1,4]diazepin-6-yl)benzyl)-1H-1,2,3-triazol-4-yl)methyl) carbamate], more than 3000 nM; to `CSc1ncc2c(n1)N(C)CCN(c1cccc(-n3cc(CN(C)C(=O)OC(C)(C)C)cn3)c1)C2=O` [Example 45, tert-butyl methyl((1-(3-(9-methyl-2-(methylthio)-5-oxo-5,7,8,9-tetrahydro-6H-pyrimido[4,5-e][1,4]diazepin-6-yl)phenyl)-1H-pyrazol-4-yl)methyl) carbamate], more than 3000 nM.
Regarding `CSc1ncc2c(n1)N(C)CCN(c1cccc(-n3cnc(CN(C)C(=O)OC(C)(C)C)c3)c1)C2=O` [Example 46, tert-butyl methyl((1-(3-(9-methyl-2-(methylthio)-5-oxo-5,7,8,9-tetrahydro-6H-pyrimido[4,5-e][1,4]diazepin-6-yl)phenyl)-1H-imidazol-4-yl)methyl) carbamate], the inhibitory constant (Ki) is more than 3000 nM.

A word on the Ki: it is a dissociation constant, usually derived from enzyme kinetics or from competition with a known ligand.
